Values of other authors, collected in US20110144044A1, “Composition and method for increasing post workout recovery” (priority 2009, published 2011).

Tests used:
rats = details: CNS administration
[1] = after caffeine ingestion 6 mg/kg, intense exercise

Cn1c(=O)c2c(ncn2C)n(C)c1=O [caffeine]
increase in treadmill run time to fatigue (rats): approximately 60%
muscle lactate concentration (subjects; [1]): increased
net muscle glycogenolysis (subjects; [1]): unaffected
plasma epinephrine concentration (subjects; [1]): increased
endurance (subjects; caffeine 6 mg/kg ingested vs placebo, cycling to voluntary exhaustion): significant increase in endurance

CCNC(=O)[C@H]1O[C@@H](n2cnc3c(N)ncnc32)[C@H](O)[C@@H]1O [NECA, 5′-N-ethylcarboxamidoadenosine]
run time to fatigue (rats): significantly reduced run time to fatigue
